The values that follow come from the NIST ThermoML archive (doi:10.1016/j.tca.2011.07.006).

Numbers after ± are expanded uncertainties.

The conditions of data set [1]: Crystal; DTA.
The nature of data set [2]: Molar enthalpy of transition or fusion. The conditions noted are these: Crystal; DSC.

Consider `CCn1cc[n+](C)c1.[Cl-].[Cl][Al]([Cl])[Cl]` [1-ethyl-3-methyl-1H-imidazolium tetrachloroaluminate], for which the Normal melting temperature in data set [1] was found to be 6.5 ± 0.5 °C. Further, in data set [2], the “Molar enthalpy of transition or fusion” value is 13.8 ± 0.7 kJ/mol.

For the compound `CCn1cc[n+](C)c1.[Cl-]` [1-ethyl-3-methylimidazolium chloride], the Normal melting temperature in data set [1] worked out at 97.0 ± 0.5 °C. Also, the “Molar enthalpy of transition or fusion” value in data set [2] came out at 15.1 ± 1.3 kJ/mol.
